Reference: paper PMC11606603, “The membrane domains of mammalian adenylyl cyclases are lipid receptors” (eLife, 2024)
Values joined by “and” are separate entries in the source; they are usually repeats but may differ in a detail not shown here. Equal values may be shown once. “Also recorded” adds a separate entry of the source.

Legend:
Format in all cases: biochemical
mAC5 = biological target: T1, mAC5 (Homo sapiens, UniProt O95622); experiment: AC assay, Gsα-stimulated mAC5 in membranes from transfected HEK293 cells
T1 construct: Human mAC genes were from GenScript and fitted with a C-terminal FLAG-tag; FLAG (C); made in house; host or cells: HEK293, permanently transfected; membrane preparation
Procedure, shortened: (§1)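 cAMP detected with a Cisbio kit, calibrated by a cAMP standard curve each run. Reaction: 1 mM ATP, 2 mM MgCl2, 3 mM creatine phosphate, 60 μg/ml creatine kinase, 50 mM MOPS pH 7.5. Enzyme source: membranes of stably transfected HEK293 (G418-selected) carrying FLAG-tagged human AC.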

mAC1 = biological target: T2, mAC1 (Homo sapiens, UniProt Q08828); experiment: AC assay, Gsα-stimulated mAC1 in membranes from transfected HEK293 cells; details: 20 µM fatty acid; 300 nM Gsα; single experiments
T2 construct: Human mAC genes were from GenScript and fitted with a C-terminal FLAG-tag; FLAG (C); made in house; host or cells: HEK293, permanently transfected; membrane preparation
Procedure, shortened: as §1

mAC2 = biological target: T3, mAC2 (Homo sapiens, UniProt Q08462); experiment: AC assay, Gsα-stimulated mAC2 in membranes from transfected HEK293 cells; details: Figure 5-figure supplement 1 left, 20 µM
T3 construct: Human mAC genes were from GenScript and fitted with a C-terminal FLAG-tag; FLAG (C); made in house; host or cells: HEK293, permanently transfected; membrane preparation
Procedure, shortened: as §1

mAC6 = biological target: T4, mAC6 (Homo sapiens, UniProt O43306); experiment: AC assay, Gsα-stimulated mAC6 in membranes from transfected HEK293 cells; details: 20µM fatty acid concentration
T4 construct: Human mAC genes were from GenScript and fitted with a C-terminal FLAG-tag; FLAG (C); made in house; host or cells: HEK293, permanently transfected; membrane preparation
Procedure, shortened: as §1

mAC3 = biological target: T5, mAC3 (Homo sapiens, UniProt O60266); experiment: AC assay, Gsα-stimulated mAC3 in membranes from transfected HEK293 cells; details: for mAC3 activity [%] (100% = 300nM Gsα stimulation): individual experiments
T5 construct: Human mAC genes were from GenScript and fitted with a C-terminal FLAG-tag; FLAG (C); made in house; host or cells: HEK293, permanently transfected; membrane preparation
Procedure, shortened: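 EC50 and IC50 values come from cAMP production, read with a Cisbio cAMP kit and converted via a standard curve. Assay mix held 1 mM ATP, 2 mM MgCl2, 3 mM creatine phosphate and 60 μg/ml creatine kinase in 50 mM MOPS pH 7.5, using transfected HEK293 membranes.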

mAC8 = biological target: T6, mAC8 (Homo sapiens, UniProt P40145); experiment: AC assay, Gsα-stimulated mAC8 in membranes from transfected HEK293 cells; details: 20µM fatty acid concentration
T6 construct: Human mAC genes were from GenScript and fitted with a C-terminal FLAG-tag; FLAG (C); made in house; host or cells: HEK293, permanently transfected; membrane preparation
Procedure, shortened: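 Adenylyl cyclase activity was measured in 100,000 × g membrane fractions prepared from HEK293 cells permanently transfected with C-terminally FLAG-tagged human AC isoforms. Assays contained 1 mM ATP and 2 mM MgCl2 with an ATP-regenerating system at pH 7.5.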

T3 sequence (Q08462 whole entry): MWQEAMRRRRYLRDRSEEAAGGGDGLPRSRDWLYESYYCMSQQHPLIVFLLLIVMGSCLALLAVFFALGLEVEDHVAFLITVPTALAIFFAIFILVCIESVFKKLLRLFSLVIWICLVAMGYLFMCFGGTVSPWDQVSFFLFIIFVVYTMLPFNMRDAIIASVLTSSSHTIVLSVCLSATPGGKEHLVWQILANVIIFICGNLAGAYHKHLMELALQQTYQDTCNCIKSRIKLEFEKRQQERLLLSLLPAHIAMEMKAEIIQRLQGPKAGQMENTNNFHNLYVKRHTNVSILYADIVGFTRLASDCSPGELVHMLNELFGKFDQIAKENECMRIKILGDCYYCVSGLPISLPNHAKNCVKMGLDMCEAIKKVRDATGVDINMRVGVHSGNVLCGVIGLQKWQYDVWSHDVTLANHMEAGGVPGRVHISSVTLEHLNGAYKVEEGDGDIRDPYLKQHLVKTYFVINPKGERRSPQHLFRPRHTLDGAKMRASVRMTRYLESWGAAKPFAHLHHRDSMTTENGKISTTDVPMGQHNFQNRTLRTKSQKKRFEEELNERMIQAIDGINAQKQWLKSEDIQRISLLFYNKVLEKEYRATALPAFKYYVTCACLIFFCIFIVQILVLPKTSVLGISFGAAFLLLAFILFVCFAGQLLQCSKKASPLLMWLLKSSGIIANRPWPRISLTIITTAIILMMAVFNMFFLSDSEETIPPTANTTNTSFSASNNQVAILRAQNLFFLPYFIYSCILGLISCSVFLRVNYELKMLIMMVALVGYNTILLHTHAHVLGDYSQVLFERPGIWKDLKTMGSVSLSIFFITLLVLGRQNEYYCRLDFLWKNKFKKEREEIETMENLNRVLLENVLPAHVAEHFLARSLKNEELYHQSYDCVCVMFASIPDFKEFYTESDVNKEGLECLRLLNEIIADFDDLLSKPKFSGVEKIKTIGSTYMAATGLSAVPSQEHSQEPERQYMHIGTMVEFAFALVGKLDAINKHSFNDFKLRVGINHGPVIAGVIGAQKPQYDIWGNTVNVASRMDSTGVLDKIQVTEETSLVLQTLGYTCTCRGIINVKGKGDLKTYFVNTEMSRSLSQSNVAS
T3 sequence (P63092 2-394 Q227L partner): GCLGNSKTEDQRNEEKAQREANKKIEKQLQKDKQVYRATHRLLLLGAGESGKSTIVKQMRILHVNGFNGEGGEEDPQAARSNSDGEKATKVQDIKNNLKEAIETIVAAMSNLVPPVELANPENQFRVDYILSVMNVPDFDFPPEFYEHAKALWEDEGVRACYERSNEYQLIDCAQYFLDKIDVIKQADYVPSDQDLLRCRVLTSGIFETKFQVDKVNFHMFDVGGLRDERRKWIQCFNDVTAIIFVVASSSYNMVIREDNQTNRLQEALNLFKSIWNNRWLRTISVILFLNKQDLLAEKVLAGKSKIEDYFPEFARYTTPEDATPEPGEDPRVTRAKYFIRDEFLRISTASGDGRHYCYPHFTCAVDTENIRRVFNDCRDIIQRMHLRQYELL
T1 sequence (O95622 whole entry): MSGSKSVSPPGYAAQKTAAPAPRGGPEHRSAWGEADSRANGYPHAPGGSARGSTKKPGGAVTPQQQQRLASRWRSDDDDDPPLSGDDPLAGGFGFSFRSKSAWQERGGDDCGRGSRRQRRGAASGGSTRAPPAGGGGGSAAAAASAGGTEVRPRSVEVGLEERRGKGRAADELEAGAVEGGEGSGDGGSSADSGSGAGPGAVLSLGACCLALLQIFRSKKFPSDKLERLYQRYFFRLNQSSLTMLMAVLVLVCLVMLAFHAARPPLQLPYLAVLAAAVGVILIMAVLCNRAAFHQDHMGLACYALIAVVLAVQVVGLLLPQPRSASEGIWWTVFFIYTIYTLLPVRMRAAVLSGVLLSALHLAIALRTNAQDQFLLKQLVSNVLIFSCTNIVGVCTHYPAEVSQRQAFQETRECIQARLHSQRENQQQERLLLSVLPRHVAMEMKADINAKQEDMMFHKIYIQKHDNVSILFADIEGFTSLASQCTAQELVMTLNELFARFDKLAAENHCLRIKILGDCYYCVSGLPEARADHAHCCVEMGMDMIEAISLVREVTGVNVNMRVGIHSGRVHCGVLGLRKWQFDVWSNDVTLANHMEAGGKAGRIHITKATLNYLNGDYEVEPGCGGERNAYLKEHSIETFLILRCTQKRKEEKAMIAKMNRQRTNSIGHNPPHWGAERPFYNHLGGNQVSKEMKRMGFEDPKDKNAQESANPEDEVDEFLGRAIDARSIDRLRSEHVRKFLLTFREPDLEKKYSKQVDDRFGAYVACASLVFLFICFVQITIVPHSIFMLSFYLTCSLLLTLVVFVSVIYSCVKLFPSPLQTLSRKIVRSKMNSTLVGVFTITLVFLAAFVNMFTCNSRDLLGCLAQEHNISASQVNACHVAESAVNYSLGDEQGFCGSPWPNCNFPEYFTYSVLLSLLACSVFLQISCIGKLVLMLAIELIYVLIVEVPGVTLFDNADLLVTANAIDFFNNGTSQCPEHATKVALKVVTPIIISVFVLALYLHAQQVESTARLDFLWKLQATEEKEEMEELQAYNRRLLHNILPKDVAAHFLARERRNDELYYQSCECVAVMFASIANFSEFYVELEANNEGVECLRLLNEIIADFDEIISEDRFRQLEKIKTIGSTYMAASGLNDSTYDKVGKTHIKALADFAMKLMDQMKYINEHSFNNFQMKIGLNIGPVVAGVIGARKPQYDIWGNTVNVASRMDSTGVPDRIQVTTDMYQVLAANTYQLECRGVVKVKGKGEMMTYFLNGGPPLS
T2 sequence (Q08828 whole entry): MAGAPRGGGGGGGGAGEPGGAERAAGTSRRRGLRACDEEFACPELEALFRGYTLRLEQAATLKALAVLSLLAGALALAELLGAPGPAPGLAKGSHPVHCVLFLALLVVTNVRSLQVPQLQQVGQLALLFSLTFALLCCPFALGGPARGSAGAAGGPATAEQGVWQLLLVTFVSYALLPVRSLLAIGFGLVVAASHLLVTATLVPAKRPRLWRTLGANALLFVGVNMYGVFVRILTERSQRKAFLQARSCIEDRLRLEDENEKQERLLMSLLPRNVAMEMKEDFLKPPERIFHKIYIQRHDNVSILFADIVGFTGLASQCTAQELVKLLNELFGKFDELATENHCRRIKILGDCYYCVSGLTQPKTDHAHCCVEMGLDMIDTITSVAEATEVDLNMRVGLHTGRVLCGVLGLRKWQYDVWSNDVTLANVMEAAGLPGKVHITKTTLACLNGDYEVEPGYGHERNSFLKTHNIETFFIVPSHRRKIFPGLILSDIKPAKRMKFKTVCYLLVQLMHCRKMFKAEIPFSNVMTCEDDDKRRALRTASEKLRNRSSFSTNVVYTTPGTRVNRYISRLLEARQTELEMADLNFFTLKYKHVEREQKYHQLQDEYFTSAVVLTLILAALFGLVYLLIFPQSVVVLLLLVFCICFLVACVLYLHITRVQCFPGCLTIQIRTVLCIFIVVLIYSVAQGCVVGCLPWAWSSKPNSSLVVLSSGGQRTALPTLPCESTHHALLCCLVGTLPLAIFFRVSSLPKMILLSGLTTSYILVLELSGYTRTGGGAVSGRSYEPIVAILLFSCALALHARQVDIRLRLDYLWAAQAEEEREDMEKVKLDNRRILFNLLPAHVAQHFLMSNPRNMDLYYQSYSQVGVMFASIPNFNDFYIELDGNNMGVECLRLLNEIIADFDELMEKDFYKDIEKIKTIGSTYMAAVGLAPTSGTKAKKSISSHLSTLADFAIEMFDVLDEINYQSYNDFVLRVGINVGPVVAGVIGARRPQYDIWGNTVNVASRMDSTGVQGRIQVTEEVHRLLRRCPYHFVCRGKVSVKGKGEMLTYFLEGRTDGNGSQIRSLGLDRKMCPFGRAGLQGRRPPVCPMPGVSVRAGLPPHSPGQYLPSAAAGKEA
T4 sequence (O43306 whole entry): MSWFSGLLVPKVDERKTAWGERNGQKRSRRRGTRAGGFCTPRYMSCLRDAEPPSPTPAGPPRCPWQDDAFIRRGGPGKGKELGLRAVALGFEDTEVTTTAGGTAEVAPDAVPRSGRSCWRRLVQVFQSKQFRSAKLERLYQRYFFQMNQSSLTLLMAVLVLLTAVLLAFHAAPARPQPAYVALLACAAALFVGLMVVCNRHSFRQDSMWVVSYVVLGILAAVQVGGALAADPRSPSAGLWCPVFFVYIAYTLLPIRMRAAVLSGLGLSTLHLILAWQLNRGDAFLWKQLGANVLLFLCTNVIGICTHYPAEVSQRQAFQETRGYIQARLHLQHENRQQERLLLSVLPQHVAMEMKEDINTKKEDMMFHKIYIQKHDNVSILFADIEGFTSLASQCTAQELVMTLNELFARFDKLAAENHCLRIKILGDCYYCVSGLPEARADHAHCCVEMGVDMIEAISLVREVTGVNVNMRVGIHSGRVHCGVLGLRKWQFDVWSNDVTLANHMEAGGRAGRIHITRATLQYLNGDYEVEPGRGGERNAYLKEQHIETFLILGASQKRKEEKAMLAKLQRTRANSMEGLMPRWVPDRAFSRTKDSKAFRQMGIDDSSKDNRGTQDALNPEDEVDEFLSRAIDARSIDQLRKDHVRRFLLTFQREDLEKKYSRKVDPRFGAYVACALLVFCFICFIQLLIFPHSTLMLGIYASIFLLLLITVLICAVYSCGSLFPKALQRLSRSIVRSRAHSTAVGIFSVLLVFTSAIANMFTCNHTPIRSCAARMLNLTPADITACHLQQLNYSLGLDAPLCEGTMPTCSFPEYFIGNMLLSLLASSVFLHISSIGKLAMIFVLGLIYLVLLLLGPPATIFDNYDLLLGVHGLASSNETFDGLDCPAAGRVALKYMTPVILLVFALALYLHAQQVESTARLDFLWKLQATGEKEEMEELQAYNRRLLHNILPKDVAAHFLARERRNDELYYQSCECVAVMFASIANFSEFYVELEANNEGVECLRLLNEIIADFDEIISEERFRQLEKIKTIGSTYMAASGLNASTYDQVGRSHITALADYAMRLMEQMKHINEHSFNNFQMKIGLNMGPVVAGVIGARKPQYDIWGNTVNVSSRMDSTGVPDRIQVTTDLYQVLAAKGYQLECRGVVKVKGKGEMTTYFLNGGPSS

CCCCCCCCCCCCCCCCCC(=O)O [Stearic acid, Stearic (octadecanoic) acid]
mAC5 activity [%] (100% = 300nM Gsα stimulation) (mAC5; 20µM fatty acid concentration): 73% and 93% and 77%
mAC5 activity [%] (100% = 300nM Gsα stimulation) (mAC5; fatty acid 0.5 µM, individual experiments): 100%
mAC5 activity [%] (100% = 300nM Gsα stimulation) (mAC5; fatty acid 1 µM, individual experiments): 134% and 72%
mAC5 activity [%] (100% = 300nM Gsα stimulation) (mAC5; fatty acid 3 µM, individual experiments): 73% and 80% and 162%
mAC5 activity [%] (100% = 300nM Gsα stimulation) (mAC5; fatty acid 6 µM, individual experiments): 124% and 75% and 108% and 125%
mAC5 activity [%] (100% = 300nM Gsα stimulation) (mAC5; fatty acid 10 µM, individual experiments): 73% and 93% and 77%
mAC5 activity [%] (100% = 300nM Gsα stimulation) (mAC5; fatty acid 20 µM, individual experiments): 80% and 91% and 83%
mAC1 activity [%] (100% = 300nM Gsα stimulation); 20µM fatty acid concentration (mAC1): 126% and 77% and 95%
mAC2 activity [%] (100% = 300nM Gsα stimulation); 20µM fatty acid concentration (mAC2): 100% and 101% and 84% and 89%
mAC6 activity [%] (100% = 300nM Gsα stimulation) (mAC6): 88% and 61% and 94% and 93%
Effect of lipid on 300 nM Gsα-stimulated mAC3 (mAC3; 20 µM, in words): no significant effect; also recorded: inactive
mAC3 activity [%] (100% = 300nM Gsα stimulation) (mAC3; fatty acid 0.5 µM): 100%
mAC3 activity [%] (100% = 300nM Gsα stimulation) (mAC3; fatty acid 1 µM): 121% and 48% and 49% and 110% and 79%
mAC3 activity [%] (100% = 300nM Gsα stimulation) (mAC3; fatty acid 3 µM): 84% and 77% and 52% and 121% and 116%
mAC3 activity [%] (100% = 300nM Gsα stimulation) (mAC3; fatty acid 6 µM): 91% and 103% (2×) and 32% and 75%
mAC3 activity [%] (100% = 300nM Gsα stimulation) (mAC3; fatty acid 10 µM): 69% and 84% and 76% and 71% and 80% and 79%
mAC3 activity [%] (100% = 300nM Gsα stimulation) (mAC3; fatty acid 20 µM): 115% and 83% and 68% and 70% and 65% and 160%
mAC8 activity [%] (100% = 300nM Gsα stimulation) (mAC8): 107% and 102%
